The values below come from patent US9096589B2, “Heteroaromatic phenylimidazole derivatives as PDE10A enzyme inhibitors” (H. Lundbeck A/S, priority 2009, dated 2015).

pIC50: −log10 of the molar value.

PDE10A, sequence (Q9Y233 716-1055): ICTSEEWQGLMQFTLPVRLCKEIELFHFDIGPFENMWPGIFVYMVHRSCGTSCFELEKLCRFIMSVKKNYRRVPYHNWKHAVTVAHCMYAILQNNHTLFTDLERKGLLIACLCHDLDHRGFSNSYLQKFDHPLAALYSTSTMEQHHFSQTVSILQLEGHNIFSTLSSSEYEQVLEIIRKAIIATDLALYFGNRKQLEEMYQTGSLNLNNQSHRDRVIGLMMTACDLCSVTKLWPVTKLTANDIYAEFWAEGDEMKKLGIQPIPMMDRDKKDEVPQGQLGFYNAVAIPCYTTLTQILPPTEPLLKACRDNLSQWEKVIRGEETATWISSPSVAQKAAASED

This assay has as its target PDE10A (Homo sapiens (Human), UniProt Q9Y233). The experiment in a line: PDE10A inhibition assay. It counts as biochemical. Here is the method: Active PDE10A enzyme is prepared in a number of ways for use in PDE assays (Loughney, K. et al. Gene 1999, 234, 109-117; Fujishige, K. et al. Eur J. Biochem. 1999, 266, 1118-1127 and Soderling, S. et al. Proc. Natl. Acad. Sci. 1999, 96, 7071-7076). PDE10A can be expressed as full-length proteins or as truncated proteins, as long as they express the catalytic domain. PDE10A can be prepared in different cell types, for example insect cells or E. coli. An example of a method to obtain catalytically active PDE10A is as follows: The catalytic domain of human PDE10A (amino acids 440-779 from the sequence with accession number NP 006652) is amplified from total human brain total RNA by standard RT-PCR and is cloned into the BamH1 and Xho1 sites of the pET28a vector (Novagen). Expression in coli is performed according to standard protocols. Briefly, the expression plasmids are transformed into the BL21(DE3) E. coli strain, and 50 mL cultures inoculated with the cells allowed to grow to an OD600 of 0.4-0.6 before protein expression is induced with 0.5 mM IPTG. Following induction, the cells are incubated overnight at room temperature, after which the cells are collected by centrifugation. Cells expressing PDE10A are resuspended in 12 mL (50 mM TRIS-HCl-pH8.0, 1 mM MgCl2 and protease inhibitors). The cells are lysed by sonication, and after all cells are lysed, TritonX100 is added according to Novagen protocols.
A PDE10A assay may for example, be performed as follows: The assay is performed in 60 uL samples containing a fixed amount of the relevant PDE enzyme (sufficient to convert 20-25% of the cyclic nucleotide substrate); a buffer (50 mM HEPES7.6; 10 mM MgCl2; 0.02% Tween20), 0.1 mg/ml BSA, 225 pCi of ^3H-labelled cyclic nucleotide substrate, tritium labeled cAMP to a final concentration of 5 nM and varying amounts of inhibitors. Reactions are initiated by addition of the cyclic nucleotide substrate, and reactions are allowed to proceed for one hr at room temperature before being terminated through mixing with 15 uL 8 mg/mL yttrium silicate SPA beads (Amersham). The beads are allowed to settle for one hr in the dark before the plates are counted in a Wallac 1450 Microbeta counter. The measured signal can be converted to activity relative to an uninhibited control (100%) and IC50 values can be calculated using the Xlfit extension to EXCEL.
The compound `COc1cccn2nc(CCc3nc(-c4cccs4)cn3C)nc12` [8-Methoxy-2-[2-(1-methyl-4-thiophen-2-yl-1H-imidazol-2-yl)-ethyl]-[1,2,4]triazolo[1,5-a]pyridine] had a pIC50 of 8.35. With `COc1cccn2nc(CCc3nc(-c4ccsc4)cn3C)nc12` [8-Methoxy-2-[2-(1-methyl-4-thiophen-3-yl-1H-imidazol-2-yl)-ethyl]-[1,2,4]triazolo[1,5-a]pyridine] the figure was 7.80; with `COc1cccn2nc(CCc3nc(-c4cccnc4)c[nH]3)nc12` [8-Methoxy-2-[2-(4-pyridin-3-yl-1H-imidazol-2-yl)-ethyl]-[1,2,4]triazolo[1,5-a]pyridine], 6.57; with `COc1cccn2nc(CCc3nc(-c4cncs4)c[nH]3)nc12` [8-Methoxy-2-[2-(4-thiazol-5-yl-1H-imidazol-2-yl)-ethyl]-[1,2,4]triazolo[1,5-a]pyridine], 7.21.

For `COc1cccn2nc(CCc3nc(-c4cccs4)c[nH]3)nc12` [8-Methoxy-2-[2-(4-thiophen-2-yl-1H-imidazol-2-yl)-ethyl]-[1,2,4]triazolo[1,5-a]pyridine], the pIC50 is 7.55.

`COc1cccn2nc(/C=C/c3nc(-c4cncs4)cn3C)nc12` [8-Methoxy-2-[(E)-2-(1-methyl-4-thiazol-5-yl-1H-imidazol-2-yl)-vinyl]-[1,2,4]triazolo[1,5-a]pyridine] showed a pIC50 of 7.07. Then `COc1cccn2nc(/C=C/c3nc(-c4cccs4)cn3C)nc12` [8-Methoxy-2-[(E)-2-(1-methyl-4-thiophen-2-yl-1H-imidazol-2-yl)-vinyl]-[1,2,4]triazolo[1,5-a]pyridine], with 7.21. With `COc1cccn2nc(/C=C/c3nc(-c4ccsc4)cn3C)nc12` [8-Methoxy-2-[(E)-2-(1-methyl-4-thiophen-3-yl-1H-imidazol-2-yl)-vinyl]-[1,2,4]triazolo[1,5-a]pyridine] the figure was 7.28; with `COc1cccn2nc(CCc3nc(-c4cscc4C)cn3C)nc12` [8-Methoxy-2-{2-[1-methyl-4-(4-methyl-thiophen-3-yl)-1H-imidazol-2-yl]-ethyl}-[1,2,4]triazolo[1,5-a]pyridine], 7.43; with `COc1cccn2nc(CCc3nc(-c4ccc(C)o4)cn3C)nc12` [8-Methoxy-2-{2-[1-methyl-4-(5-methyl-furan-2-yl)-1H-imidazol-2-yl]-ethyl}-[1,2,4]triazolo[1,5-a]pyridine], 7.25. With `COc1cccn2nc(CCc3nc(-c4ccc(C)o4)c[nH]3)nc12` [8-Methoxy-2-{2-[4-(5-methyl-furan-2-yl)-1H-imidazol-2-yl]-ethyl}-[1,2,4]triazolo[1,5-a]pyridine] the figure was 6.92. Compound `COc1cccn2nc(/C=C/c3nc(-c4cscc4C)cn3C)nc12` [8-Methoxy-2-{(E)-2-[1-methyl-4-(4-methyl-thiophen-3-yl)-1H-imidazol-2-yl]-vinyl}-[1,2,4]triazolo[1,5-a]pyridine] showed a pIC50 of 7.26.

As to `COc1ccc(C)n2nc(CCc3nc(-c4cccnc4)cn3C)nc12` [8-Methoxy-5-methyl-2-[2-(1-methyl-4-pyridin-3-yl-1H-imidazol-2-yl)-ethyl]-[1,2,4]triazolo[1,5-a]pyridine], the pIC50 is 7.62. For `COc1ccc(C)n2nc(CCc3nc(-c4cncs4)cn3C)nc12` [8-Methoxy-5-methyl-2-[2-(1-methyl-4-thiazol-5-yl-1H-imidazol-2-yl)-ethyl]-[1,2,4]triazolo[1,5-a]pyridine], the pIC50 was 8.04. With `COc1ccc(C)n2nc(CCc3nc(-c4cccs4)cn3C)nc12` [8-Methoxy-5-methyl-2-[2-(1-methyl-4-thiophen-2-yl-1H-imidazol-2-yl)-ethyl]-[1,2,4]triazolo[1,5-a]pyridine] the figure was 8.82; with `COc1ccc(C)n2nc(CCc3nc(-c4ccsc4)cn3C)nc12` [8-Methoxy-5-methyl-2-[2-(1-methyl-4-thiophen-3-yl-1H-imidazol-2-yl)-ethyl]-[1,2,4]triazolo[1,5-a]pyridine], 8.77.

Usually pIC50 stands for the IC50 on a negative log10 scale, so that one unit is a factor of ten. A low value points to a large IC50.
